According to paper PMC9516332 (Frontiers in Oncology, 2022):
Read-outs that look alike come from different tables or passages of the source.

Key:
Test in all cases: Kinase panel profiling at 1 µmol/L (MSA or IMAP), percentage inhibition
Assay type in all cases: biochemical
[1] = target: T1, panel of 255 wild-type kinases (Homo sapiens, UniProt O14920); settings: read-out: %-inhibition at 1 µmol/L, IKKβ
T1 sequence (O14920 1-756): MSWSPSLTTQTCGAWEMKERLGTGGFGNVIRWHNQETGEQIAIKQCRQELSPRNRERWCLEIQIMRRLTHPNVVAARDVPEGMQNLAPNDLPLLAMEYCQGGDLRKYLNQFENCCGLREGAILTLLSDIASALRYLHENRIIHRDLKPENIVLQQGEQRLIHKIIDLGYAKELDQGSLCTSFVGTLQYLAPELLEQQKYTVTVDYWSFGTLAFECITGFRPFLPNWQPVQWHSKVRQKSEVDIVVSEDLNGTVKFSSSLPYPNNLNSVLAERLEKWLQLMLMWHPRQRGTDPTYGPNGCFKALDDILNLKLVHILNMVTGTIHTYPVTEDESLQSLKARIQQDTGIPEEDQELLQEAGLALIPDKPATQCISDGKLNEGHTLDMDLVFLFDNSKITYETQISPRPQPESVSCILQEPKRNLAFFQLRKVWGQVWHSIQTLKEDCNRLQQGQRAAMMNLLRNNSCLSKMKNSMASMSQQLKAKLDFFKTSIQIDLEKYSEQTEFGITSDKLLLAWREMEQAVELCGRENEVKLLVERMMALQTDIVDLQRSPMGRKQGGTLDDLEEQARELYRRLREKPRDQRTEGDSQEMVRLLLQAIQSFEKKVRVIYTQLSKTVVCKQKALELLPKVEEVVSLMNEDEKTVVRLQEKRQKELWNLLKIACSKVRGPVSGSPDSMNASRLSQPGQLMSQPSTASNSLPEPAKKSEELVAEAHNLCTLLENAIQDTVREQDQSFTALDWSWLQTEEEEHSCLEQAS

[2] = target: panel of 255 wild-type kinases (Homo sapiens, UniProt O75116); settings: read-out: %-inhibition at 1 µmol/L, ROCK2
[3] = target: panel of 255 wild-type kinases (Homo sapiens, UniProt P23458); settings: read-out: %-inhibition at 1 µmol/L, JAK1
[4] = target: T2, panel of 255 wild-type kinases (Homo sapiens, UniProt P30530); settings: read-out: %-inhibition AXL
T2 sequence (P30530 26-894): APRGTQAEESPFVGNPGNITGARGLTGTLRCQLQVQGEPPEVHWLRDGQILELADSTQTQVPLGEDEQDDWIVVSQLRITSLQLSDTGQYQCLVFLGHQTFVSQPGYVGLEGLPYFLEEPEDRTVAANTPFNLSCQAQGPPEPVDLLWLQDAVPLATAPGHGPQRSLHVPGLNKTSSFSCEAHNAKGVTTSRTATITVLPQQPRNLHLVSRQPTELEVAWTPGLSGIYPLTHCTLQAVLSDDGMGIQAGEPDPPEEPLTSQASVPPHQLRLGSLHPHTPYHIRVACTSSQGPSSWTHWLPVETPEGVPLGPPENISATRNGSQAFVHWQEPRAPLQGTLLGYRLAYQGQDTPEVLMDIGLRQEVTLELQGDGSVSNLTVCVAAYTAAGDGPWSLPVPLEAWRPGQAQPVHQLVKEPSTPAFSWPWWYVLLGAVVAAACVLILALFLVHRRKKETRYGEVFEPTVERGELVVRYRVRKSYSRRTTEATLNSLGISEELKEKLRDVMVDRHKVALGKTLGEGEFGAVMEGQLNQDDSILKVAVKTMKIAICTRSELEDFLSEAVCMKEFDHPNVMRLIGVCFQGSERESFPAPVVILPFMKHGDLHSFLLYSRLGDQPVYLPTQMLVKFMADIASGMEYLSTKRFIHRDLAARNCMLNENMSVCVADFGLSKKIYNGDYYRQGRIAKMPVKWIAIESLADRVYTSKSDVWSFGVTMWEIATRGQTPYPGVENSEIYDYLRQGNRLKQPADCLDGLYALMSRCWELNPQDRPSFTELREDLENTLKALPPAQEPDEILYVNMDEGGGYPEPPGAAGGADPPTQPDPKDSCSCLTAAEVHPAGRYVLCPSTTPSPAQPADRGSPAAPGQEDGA

[5] = target: panel of 255 wild-type kinases (Homo sapiens, UniProt P41240); settings: read-out: %-inhibition at 1 µmol/L, CSK
[6] = target: panel of 255 wild-type kinases (Homo sapiens, UniProt P49674); settings: read-out: %-inhibition at 1 µmol/L, CK1ε
[7] = target: T3, panel of 255 wild-type kinases (Homo sapiens, UniProt Q8IW41); settings: read-out: %-inhibition, MAPKAPK5
T3 sequence (Q8IW41 1-473): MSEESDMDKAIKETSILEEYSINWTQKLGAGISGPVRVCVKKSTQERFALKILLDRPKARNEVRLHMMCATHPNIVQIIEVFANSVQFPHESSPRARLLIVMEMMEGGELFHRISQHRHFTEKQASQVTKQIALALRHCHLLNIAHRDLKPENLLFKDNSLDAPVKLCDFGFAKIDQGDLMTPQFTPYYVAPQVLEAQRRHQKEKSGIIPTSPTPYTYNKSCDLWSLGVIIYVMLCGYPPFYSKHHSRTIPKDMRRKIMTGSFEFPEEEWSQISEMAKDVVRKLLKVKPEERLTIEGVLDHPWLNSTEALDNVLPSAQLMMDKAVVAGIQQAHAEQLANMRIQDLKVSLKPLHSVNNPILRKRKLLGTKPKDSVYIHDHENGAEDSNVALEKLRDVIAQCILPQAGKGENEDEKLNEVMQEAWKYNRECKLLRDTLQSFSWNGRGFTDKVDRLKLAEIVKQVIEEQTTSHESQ

[8] = target: panel of 255 wild-type kinases (Homo sapiens, UniProt Q8N4C8); settings: read-out: %-inhibition, MINK
[9] = target: panel of 255 wild-type kinases (Homo sapiens, UniProt Q96GD4); settings: read-out: %-inhibition AurB
[10] = test system: panel of 255 wild-type kinases
[11] = kinase IKKβ, 1 µmol/L single concentration
[12] = kinase ROCK2, 1 µmol/L single concentration
[13] = kinase JAK1, 1 µmol/L single concentration
[14] = AXL kinase assay, 1 µmol/L single concentration
[15] = kinase CSK, 1 µmol/L single concentration
[16] = kinase CK1ε, 1 µmol/L single concentration
[17] = MAPKAPK5, 1 µmol/L single concentration
[18] = MINK, 1 µmol/L single concentration
[19] = AurB kinase assay, 1 µmol/L single concentration
[20] = kinase FYN [isoform b], 1 µmol/L single concentration
[21] = kinase LYNb, 1 µmol/L single concentration
[22] = kinase PKCβ2, 1 µmol/L single concentration
[23] = kinase SRM, 1 µmol/L single concentration

SMILES | inhibition at 1 µM [1, 11] [%] | inhibition at 1 µM [2, 12] [%] | inhibition at 1 µM [3, 13] [%] | inhibition at 1 µM [4, 14] [%] | inhibition at 1 µM [5, 15] [%] | inhibition at 1 µM [6, 16] [%] | inhibition at 1 µM [7, 17] [%] | inhibition at 1 µM [8, 18] [%] | inhibition at 1 µM [9, 19] [%] | %-inhibition at 1 µmol/L, FYN [isoform b] [10, 20] [%] | %-inhibition at 1 µmol/L, LYNb [10, 21] [%] | %-inhibition at 1 µmol/L, PKCβ2 [10, 22] [%] | %-inhibition at 1 µmol/L, SRM [10, 23] [%] | also measured
COC(=O)N[C@@H](C)CNc1nccc(-c2cn(C(C)C)nc2-c2cc(Cl)cc(NS(C)(=O)=O)c2F)n1 [encorafenib] | 0.644 | 1.32 | 3.6 | 0.276 | 1.58 | 15 | -4 | 1.29 | -0.69 | 4.62 | 4 | 2.15 | 85 | –
C[C@H](Nc1ncnc2nc[nH]c12)c1cc2cccc(Cl)c2c(=O)n1-c1ccccc1 [duvelisib] | 0.466 | -0.18 | 0.053 | -0.298 | 1.86 | 5 | 0.859 | 0.317 | 0.417 | 0.6 | 3 | 1.61 | 4 | inhibition of profiled kinases in biochemical assays ([10]; 1 µmol/L inhibitor): did not inhibit FLT3 or any of the other profiled tyrosine or serine/threonine kinases
CCN1CCN(c2ccc(Nc3cc(N(C)C(=O)Nc4c(Cl)c(OC)cc(OC)c4Cl)ncn3)cc2)CC1 [infigratinib] | 0.304 | -0.775 | 2.57 | 30 | 2.24 | -6.49 | -6 | -2.82 | -5 | 43 | 84 | 1.5 | -2.75 | –
CNC(=O)c1ccc(-c2cnc3ncc(Cc4ccc5ncccc5c4)n3n2)cc1F [capmatinib] | – | – | – | – | – | – | – | – | – | – | – | – | – | inhibition at 1 µM [1]: -0.588%; inhibition at 1 µM [2]: -0.288%; inhibition at 1 µM [3]: 2.61%; inhibition at 1 µM [4]: 34%; inhibition at 1 µM [5]: -9%; inhibition at 1 µM [6]: -6%; inhibition at 1 µM [7]: -7%; inhibition at 1 µM [8]: -4%; inhibition at 1 µM [9]: 4.24%; %-inhibition at 1 µmol/L, FYN [isoform b] [10]: -1.2%; %-inhibition at 1 µmol/L, LYNb [10]: 0.305%; %-inhibition at 1 µmol/L, PKCβ2 [10]: -2%; %-inhibition at 1 µmol/L, SRM [10]: -0.916%
FC(F)(F)c1ccc(CNc2ccc(Cc3c[nH]c4ncc(Cl)cc34)cn2)cn1 [pexidartinib] | 5 | 0.233 | 7 | 39 | 9 | 5.38 | 0.469 | 9 | 60 | 1.3 | 19 | 3.47 | 0.409 | –
O=C(Nc1cnn2ccc(N3CCC[C@@H]3c3cc(F)ccc3F)nc12)N1CC[C@H](O)C1 [larotrectinib] | -1.76 | -3.33 | 0.894 | 4.22 | -5 | -2.19 | -3 | -2.24 | -4.57 | 1.64 | 1.48 | -2 | -3.2 | kinases inhibited by more than 50% ([10]; 1 µmol/L inhibitor): TRKA, TRKB, TRKC, ROS1, and ACK1
CCc1nc(C(N)=O)c(Nc2ccc(N3CCC(N4CCN(C)CC4)CC3)c(OC)c2)nc1NC1CCOCC1 [gilteritinib] | 5.66 | 66 | 24 | 100 | 23 | 5.55 | -0.923 | 80 | – | 86 | 84 | 31 | 23 | inhibition at 1 µM [9]: 64%
CCn1c(=O)c(-c2cc(NC(=O)Nc3ccccc3)c(F)cc2Br)cc2cnc(NC)cc21 [ripretinib] | 21 | -1.2 | 26 | 4 | 50 | 1.8 | -3.71 | 3.55 | 5 | 33 | 85 | -0.488 | 32 | –
C=CC(=O)N1CCC([C@@H]2CCNc3c(C(N)=O)c(-c4ccc(Oc5ccccc5)cc4)nn32)CC1 [zanubrutinib] | -0.69 | -3.24 | -3 | 4.56 | – | 4.32 | -3.6 | -1.27 | -4 | 22 | 55 | -1.66 | 58 | –
